Source: ChEMBL document CHEMBL6153048, “Synthesis and pharmacological evaluation of natural product diphyllin derivatives against head and neck squamous cell carcinoma” (Eur J Med Chem, 2025)

What was measured:
CAL-27 [1] = test: Induction of apoptosis in human CAL-27 cells assessed as late apoptotic cells at 1 nM incubated for 72 hrs by Annexin V-FITC/propidium iodide staining based flow cytometry analysis (reference value: 2.57%); format: functional
CAL-27 [2] = test: Induction of apoptosis in human CAL-27 cells assessed as viable cells at 100 nM incubated for 72 hrs by Annexin V-FITC/propidium iodide staining based flow cytometry analysis (reference value: 88.23%); format: functional; conditions: read-out: Activity
A549 = test: Cytotoxicity against human A549 cells incubated for 72 hrs by MTT assay; format: functional, cell-based; conditions: A549, 72 h
CAL-27 [3] = test: Induction of apoptosis in human CAL-27 cells assessed as viable cells at 1000 nM incubated for 72 hrs by Annexin V-FITC/propidium iodide staining based flow cytometry analysis (reference value: 90.41%); format: functional; conditions: read-out: Activity
CAL-27 [4] = test: Induction of apoptosis in human CAL-27 cells assessed as late apoptotic cells at 10 nM incubated for 72 hrs by Annexin V-FITC/propidium iodide staining based flow cytometry analysis (reference value: 1.82%); format: functional
CAL-27 [5] = test: Induction of apoptosis in human CAL-27 cells assessed as viable cells at 1 nM incubated for 72 hrs by Annexin V-FITC/propidium iodide staining based flow cytometry analysis (reference value: 90.41%); format: functional; conditions: read-out: Activity
CAL-27 [6] = test: Induction of apoptosis in human CAL-27 cells assessed as apoptotic cells at 1 nM incubated for 72 hrs by Annexin V-FITC/propidium iodide staining based flow cytometry analysis (reference value: 10.29%); format: functional
CAL-27 [7] = test: Induction of apoptosis in human CAL-27 cells assessed as early apoptotic cells at 100 nM incubated for 72 hrs by Annexin V-FITC/propidium iodide staining based flow cytometry analysis (reference value: 7.74%); format: functional
CAL-27 [8] = test: Induction of cell cycle arrest in human CAL-27 cells assessed as accumulation of cells at G1 phase at 1 to 1000 nM incubated for 48 hrs by flow cytometry analysis (Rvb= 58.6%); format: functional; conditions: dose 1-1000 nM
CAL-27 [9] = test: Antitumor activity against human CAL-27 cells xenografted in BALB/c mouse model assessed as tumor volume change at 0.3 mg/kg, iv treated four times a week for 30 days; format: functional; conditions: CAL-27, 720 h, time 30 day, read-out: TGI

SMILES | Activity (CAL-27 [1]) | viability at 0.1 µM (CAL-27 [2]) | IC50 (A549) | viability at 1 µM (CAL-27 [3]) | Activity (CAL-27 [4]) | viability at 0.001 µM (CAL-27 [5]) | Activity (CAL-27 [6]) | Activity (CAL-27 [7]) | Activity (CAL-27 [8]) | inhibition in vivo at 0.3 mg/kg (CAL-27 [9])
COc1cc2c(O)c3c(c(-c4ccc5c(c4)OCO5)c2cc1OC)C(=O)OC3 [DIPHYLLIN] | 5.83% | 92.5% |  |  |  |  |  |  |  | 
COc1cc2c(O[C@@H]3O[C@@H]4CO[C@@H](c5ccsc5)O[C@H]4[C@H](O)[C@H]3O)c3c(c(-c4ccc5c(c4)OCO5)c2cc1OC)C(=O)OC3 |  |  | 117 nM | 28.1% | 25.74% | 93% | 15.78% | 27.61% | 78.7% | 29.2%
